Counter-ions that a name gives are not always drawn.
Target: T1, leukotriene induced contraction of guinea pig tracheal tissues (Cavia porcellus, UniProt Q2NNR5)
T1 sequence (Q2NNR5 1-340): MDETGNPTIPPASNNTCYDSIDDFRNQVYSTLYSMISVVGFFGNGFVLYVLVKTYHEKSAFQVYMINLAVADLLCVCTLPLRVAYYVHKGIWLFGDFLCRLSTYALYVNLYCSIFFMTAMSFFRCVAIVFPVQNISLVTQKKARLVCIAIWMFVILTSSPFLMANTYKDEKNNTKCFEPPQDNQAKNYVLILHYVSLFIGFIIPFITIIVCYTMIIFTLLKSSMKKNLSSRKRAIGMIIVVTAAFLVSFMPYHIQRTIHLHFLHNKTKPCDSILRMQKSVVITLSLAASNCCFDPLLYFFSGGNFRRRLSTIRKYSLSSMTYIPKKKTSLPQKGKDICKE
Assay: Inhibition of leukotriene (LTD4) induced contraction of guinea pig tracheal spiral strips in vitro
Details: LTD4 concentration-response curves on guinea pig tracheal strips, 30 minutes pretreatment with test compound; current average where tested more than once; read-out: In Vitro -Log K8 (converted)

SMILES	Kd [µM]
CCCCCCCCCCCCc1ccccc1C(Sc1nnnn1CC(=O)O)C(=O)O (stereo not drawn) [2(2-Dodecylphenyl)-2[(1-carboxymethyl-5-tetrazolyl)thio]acetic acid]	0.794
O=C(O)CCCn1nnnc1SC(C(=O)O)c1ccccc1CCCCCCCCc1ccccc1 (stereo not drawn) [dipotassium salt hydrate]	1
CCCCCCCCCCCCc1ccccc1C(Sc1nnnn1C)C(=O)O (stereo not drawn) [5-tetrazolyl, 0,1-CH3, C12 H25, CO2 H, 2-(2-Dodecylphenyl)-2[(1-methyl-5-tetrazolyl)thio]acetic acid]	1.58
